This assay deals with T1, full length SGK1 (Homo sapiens, UniProt O00141).
T1 construct: 125 μM full length SGK1 (Life Technologies Part #PR7358A); purchased Life Technologies PR7358A
T1 sequence (O00141 1-431): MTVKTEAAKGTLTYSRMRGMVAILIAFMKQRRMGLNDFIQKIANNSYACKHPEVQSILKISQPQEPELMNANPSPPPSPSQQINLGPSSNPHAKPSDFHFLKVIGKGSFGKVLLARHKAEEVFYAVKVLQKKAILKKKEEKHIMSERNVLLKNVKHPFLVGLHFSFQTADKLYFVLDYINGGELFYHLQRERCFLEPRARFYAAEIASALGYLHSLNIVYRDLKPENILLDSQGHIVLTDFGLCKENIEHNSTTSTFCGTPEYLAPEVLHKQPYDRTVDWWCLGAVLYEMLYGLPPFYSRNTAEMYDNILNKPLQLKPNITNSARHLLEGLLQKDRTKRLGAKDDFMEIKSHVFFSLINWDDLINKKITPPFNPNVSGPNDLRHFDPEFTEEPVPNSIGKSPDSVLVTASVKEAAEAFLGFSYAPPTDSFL
The assay is described as follows: SGK1 inhibition Assay A (Caliper LabChip electrophoretic separation of fluorescent peptide substrate and phosphorylated product). In kind it is biochemical. The settings on record: Assay A; 20 μM ATP, 40 min incubation; read-out: SGK1 IC50.

Structures can show the parent of a compound that is named as a salt.

The IC50 is the midpoint of a concentration-inhibition curve.

On to `CC(=O)N1CC=C(c2cc(N3CCC[C@@H](NC(=O)c4sc(Cl)cc4OC4CCNC(C)(C)C4)C3)c3c(N)ncnn23)C1` (mixture of isomers) [Example 627, N-((R)-1-(7-(1-acetyl-2,5-dihydro-1H-pyrrol-3-y1)-4-aminopyrrolo[2,1-f][1,2,4]triazin-5-yl)piperidin-3-y1)-5-chloro-3-((2,2-dimethylpiperidin-4-yl)oxy)thiophene-2-carboxamide], for which the half-maximal inhibitory concentration (IC50) came out at 10 nM.

For `COC(=O)N1CC=C(c2cc(N3CCC[C@@H](NC(=O)c4sc(Cl)cc4OC4CCNC(C)(C)C4)C3)c3c(N)ncnn23)C1` (mixture of isomers) [Example 628, methyl 3-(4-amino-5-((3R)-3-(5-chloro-3-((2,2-dimethylpiperidin-4-yl)oxy)thiophene-2-carboxamido)piperidin-1-yl)pyrrolo[2,1-f][1,2,4]triazin-7-y1)-2,5-dihydro-1H-pyrrole-1-carboxylate], the IC50 came to 1 nM.

For the compound `CS(=O)(=O)c1ccc(-c2cc(N3CC[C@@H](F)[C@@H](NC(=O)c4ccc(Cl)s4)C3)c3c(N)ncnn23)cc1` (relative stereo) [Example 143, rel-N-((3R,4S)-1-(4-amino-7-(4-(methylsulfonyl)phenyl)pyrrolo[2,1-f][1,2,4]triazin-5-yl)-4-fluoropiperidin-3-yl)-5-chlorothiophene-2-carboxamide, TFA], the half-inhibitory concentration (IC50) was 10 nM.

As for `CS(=O)(=O)c1ccc(-c2cc(N3CC[C@H](F)[C@@H](NC(=O)c4ccc(Cl)s4)C3)c3c(N)ncnn23)cc1` (relative stereo) [Example 144, rel-N-((3R,4R)-1-(4-amino-7-(4-(methylsulfonyl)phenyl)pyrrolo[2,1-f][1,2,4]triazin-5-yl)-4-fluoropiperidin-3-yl)-5-chlorothiophene-2-carboxamide, TFA], the half-maximal inhibitory concentration (IC50) is 24 nM.

With `CS(=O)(=O)c1ccc(-c2cc(N3CC[C@@H]4C[C@]4(NC(=O)c4ccc(Cl)s4)C3)c3c(N)ncnn23)cc1` (relative stereo) [Example 165, rel-N-((1R,6R)-3-(4-amino-7-(4-(methylsulfonyl)phenyl)pyrrolo[2,1-f][1,2,4]triazin-5-yl)-3-azabicyclo[4.1.0]heptan-1-yl)-5-chlorothiophene-2-carboxamide, TFA], the IC50 came to 284 nM.

With `Nc1ncnn2c(C3=CCN(C(=O)[C@H]4C[C@@H]4F)C3)cc(N3CCC[C@@H](NC(=O)c4sc(Cl)cc4OCCN4CCOCC4)C3)c12` (relative stereo) [Example 262, rel-N-((R)-1-(4-amino-7-(1-((1R,2S)-2-fluorocyclopropane-1-carbonyl)-2,5-dihydro-1H-pyrrol-3-yl)pyrrolo[2,1-f][1,2,4]triazin-5-yl)piperidin-3-yl)-5-chloro-3-(2-morpholinoethoxy)thiophene-2-carboxamide], the half-inhibitory concentration (IC50) stood at 18 nM.

With `CC(=O)N1CC=C(c2cc(N3CCC[C@@H](NC(=O)c4sc(Cl)cc4OCC4CCCN4)C3)c3c(N)ncnn23)C1` (single isomer, unassigned) [Example 391D], the concentration for half-maximal inhibition (IC50) is 2 nM.

Consider `CC(=O)N1CC=C(c2cc(N3CCC[C@@H](NC(=O)c4sc(Cl)cc4OCC4CCCN4)C3)c3c(N)ncnn23)C1` (single isomer, unassigned) [Example 391E], for which the concentration for half-maximal inhibition (IC50) is 4 nM.

With `CC(=O)N1CC=C(c2cc(N3CCC[C@@H](NC(=O)c4sc(Cl)cc4OCC4CCCN4C)C3)c3c(N)ncnn23)C1` (single isomer, unassigned) [Example 391], the IC50 was 4 nM.

For `CC(=O)N1CC=C(c2cc(N3CCC[C@@H](NC(=O)c4sc(C(F)F)cc4C4CCNC4)C3)c3c(N)ncnn23)C1` (single isomer, unassigned) [Example 398F], the concentration for half-maximal inhibition (IC50) came out at 130 nM.

For the compound `CC(=O)N1CC=C(c2cc(N3CCC[C@@H](NC(=O)c4sc(Cl)cc4OC4CCCN(C)C4)C3)c3c(N)ncnn23)C1` (single isomer, unassigned) [Example 595], the IC50 worked out at 37 nM.

With `CC(=O)N1CC=C(c2cc(N3CCC[C@@H](NC(=O)c4sc(Cl)cc4OC4CCNCC4F)C3)c3c(N)ncnn23)C1` (single isomer, unassigned) [Example 600D], the IC50 amounted to 19 nM.

The record behind these values is US20260250290A1 (BRISTOL-MYERS SQUIBB COMPANY, priority 2023, published 2026).
